We go through 17 compounds from patent publication US20230144901A1, “SORTILIN ANTAGONISTS FOR USE IN THE TREATMENT OF DIABETIC RETINOPATHY” (Insusense ApS, priority 2020, published 2023).

In one assay the target is T1, hSortilin (Homo sapiens, UniProt Q99523).
T1 sequence (Q99523 78-831): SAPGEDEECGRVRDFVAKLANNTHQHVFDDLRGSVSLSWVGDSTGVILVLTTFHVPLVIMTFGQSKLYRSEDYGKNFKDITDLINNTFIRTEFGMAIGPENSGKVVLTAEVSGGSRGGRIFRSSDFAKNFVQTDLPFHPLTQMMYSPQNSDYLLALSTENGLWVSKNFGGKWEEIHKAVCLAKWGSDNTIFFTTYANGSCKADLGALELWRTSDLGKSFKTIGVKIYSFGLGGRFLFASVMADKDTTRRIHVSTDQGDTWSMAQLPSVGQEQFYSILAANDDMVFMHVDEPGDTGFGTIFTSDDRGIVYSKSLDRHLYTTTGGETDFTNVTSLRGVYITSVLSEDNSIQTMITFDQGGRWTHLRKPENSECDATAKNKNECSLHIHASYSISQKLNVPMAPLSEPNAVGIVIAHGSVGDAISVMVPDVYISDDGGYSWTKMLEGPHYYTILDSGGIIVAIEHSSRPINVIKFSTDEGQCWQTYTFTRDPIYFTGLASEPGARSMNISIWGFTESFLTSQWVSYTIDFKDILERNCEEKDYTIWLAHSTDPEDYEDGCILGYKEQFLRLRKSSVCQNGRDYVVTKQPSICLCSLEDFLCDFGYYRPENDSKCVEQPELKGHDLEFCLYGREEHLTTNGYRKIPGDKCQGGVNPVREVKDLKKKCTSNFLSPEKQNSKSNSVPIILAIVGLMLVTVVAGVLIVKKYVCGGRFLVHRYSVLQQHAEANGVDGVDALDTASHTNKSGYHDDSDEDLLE
In words: Neurotensin (NTS) scintillation proximity assay (SPA): displacement of 3H-neurotensin binding to hSortilin. As to conditions: for pIC50: 150 nM 6his-Sortilin, 5 nM [3H]-Neurotensin, average of at least 4 determinations; for inhibition at 50 µM: read-out: % inhibition at 50 μM, NTS SPA, compound at 50 μM (footnote *). In general terms: SPA uses beads or plates that emit light when radiolabelled molecules are held near them.

Assay [1] concerns light sensitive cells of the retina in mice. Nature of the assay: Diabetic mouse model: flash electroretinography (fERG) before and 8 weeks after STZ induction of diabetes. It counts as in vivo. The procedure: Flash electroretinography (fERG) was used to measure the electrical response of the light sensitive cells of the retina in mice both prior to streptozocin (STZ) induction of diabetes (baseline) and 8 weeks after induction. Mice were exposed to increasing intensities of light flashes and the resulting electrical responses, measured in amplitude, were recorded. The skilled person will recognise that a cell with a higher measured amplitude is indicative of a healthy cell whilst cells with lower amplitudes is indicative of a damaged cell which is no longer functioning optimally. In the experimental group, the mice were administered with a polyclonal anti-sortilin antibody (2 ul of a 1 μg/μl solution in Dulbecco's Phosphate buffered saline) by intravitrial administration whereas in the control group the mice were administered with the vehicle only (Dulbecco's Phosphate buffered saline). All other variables, such as food intake, diet, exercise levels and exposure to environmental enrichment were kept the same between the two groups.

pIC50: −log10 of the molar value.

For `Cc1cccc(NC(=O)c2ccc(Br)cc2C(=O)O)n1` [Example 1, 5-bromo-2-[(6-methylpyridin-2-yl)carbamoyl]benzoic acid], the pIC50 – broadly, −log10 of the IC50, conventionally taken in molar units – at hSortilin was 6.15.

In turn, `Cc1cccc(NC(=O)c2cc(Br)ccc2C(=O)O)n1` [Example 2, 4-bromo-2-[(6-methylpyridin-2-yl)carbamoyl]benzoic acid] had a pIC50 on hSortilin of 4.92.

For the compound `Cc1cccc(NC(=O)c2ccccc2C(=O)O)n1` [Example 3, 2-[(6-methylpyridin-2-yl)carbamoyl]benzoic acid], the inhibition (usually the share of the control response that was lost under treatment) at 50 µM on hSortilin is 15%.

On to `Cc1cccc(NC(=O)c2cccc(C)c2C(=O)O)n1` [Example 4, 2-methyl-6-[(6-methylpyridin-2-yl)carbamoyl]benzoic acid], for which the inhibition at 50 µM at hSortilin is 5%.

Consider `Cc1cccc(NC(=O)c2ccc(C(F)(F)F)cc2C(=O)O)n1` [Example 8, 2-[(6-methylpyridin-2-yl)carbamoyl]-5-(trifluoromethyl)benzoic acid], for which the “reduction in the fERG response (a wave and b wave) 8 weeks after induction compared to the baseline” value in assay [1] (intravitreal 2 μl of a 1 μg/μl solution, versus vehicle control group) is recorded as “smaller for the experimental group compared to the control group”. Moreover, the “protective effect on retinal cells compared with the polyclonal antibody of the first study” value in assay [1] (intravitreal, fERG 8 weeks after induction) was “greater than that of the polyclonal antibody”.

On to `Cc1cccc(NC(=O)c2ccc([N+](=O)[O-])cc2C(=O)O)n1` [Example 9, 2-[(6-methylpyridin-2-yl)carbamoyl]-5-nitrobenzoic acid], for which the pIC50 at hSortilin was 5.77.

For the compound `Cc1cccc(NC(=O)c2ccc(-c3ccccc3)cc2C(=O)O)n1` [Example 10, 4-[(6-methylpyridin-2-yl)carbamoyl]-[1,1′-biphenyl]-3-carboxylic acid], the inhibition at 50 µM on hSortilin was determined as 2%.

With `Cc1cccc(NC(=O)c2cc(Cl)ccc2C(=O)O)n1` [Example 11, 4-chloro-2-[(6-methylpyridin-2-yl)carbamoyl]benzoic acid], at hSortilin, the inhibition at 50 µM was determined as 69%.

For `Cc1ccc(C(=O)O)c(C(=O)Nc2cccc(C)n2)c1` [Example 12, 4-methyl-2-[(6-methylpyridin-2-yl)carbamoyl]benzoic acid], the inhibition at 50 µM on hSortilin came to 57%.

On to `Cc1cccc(NC(=O)c2c(C)cccc2C(=O)O)n1` [Example 16, 3-methyl-2-[(6-methylpyridin-2-yl)carbamoyl]benzoic acid], for which, at hSortilin, the inhibition at 50 µM stood at 43%.

As to `CCC(C)NC(=O)c1ccc(Br)cc1C(=O)O` (stereo not drawn) [Example 17, 5-bromo-2-[(butan-2-yl)carbamoyl]benzoic acid], the inhibition at 50 µM on hSortilin was 30%.

As to `CC(C)NC(=O)c1ccc(Br)cc1C(=O)O` [Example 18, 5-bromo-2-[(propan-2-yl)carbamoyl]benzoic acid], on hSortilin, the inhibition at 50 µM worked out at 35%.

As for `O=C(O)c1cc(Br)ccc1C(=O)Nc1ccccc1` [Example 19, 5-bromo-2-(phenylcarbamoyl)benzoic acid], the inhibition at 50 µM on hSortilin stood at 69%.

For `Cc1cccc(NC(=O)c2ccc(Br)cc2C(=O)O)c1` [Example 20, 5-bromo-2-[(3-methylphenyl)carbamoyl]benzoic acid], the pIC50 on hSortilin is 5.28.

Regarding `Cc1cccnc1NC(=O)c1ccc(Br)cc1C(=O)O` [Example 24, 5-bromo-2-[(3-methylpyridin-2-yl)carbamoyl]benzoic acid], the inhibition at 50 µM on hSortilin amounted to 64%.

Consider `Cc1ccc(NC(=O)c2ccc(Br)cc2C(=O)O)cn1` [Example 25, 5-bromo-2-[(6-methylpyridin-3-yl)carbamoyl]benzoic acid], for which, on hSortilin, the inhibition at 50 µM is 70%.

At hSortilin, `O=C(O)c1cc(C(F)(F)F)ccc1C(=O)Nc1ccc2c(n1)CCCC2` [Example 30, 2-[(5,6,7,8-tetrahydroquinolin-2-yl)carbamoyl]-5-(trifluoromethyl)benzoic acid] showed a negative logarithm of the IC50 (pIC50) of 7.00.
